Laboratory results published in paper PMC9704079, “Enhancement of the anticancer effect of atorvastatin-loaded nanoemulsions by improving oral absorption via multivalent intestinal transporter-targeting lipids” (Drug Delivery, 2022).

Key:
4T1 cell tumor = assay: In vivo tumor growth inhibition in 4T1 cell tumor-bearing mice; set-up: species or system BALB/c mice
Experimental: To evaluate the in vivo antitumor efficacy of oral ATV-NEs, 1 × 10^6 4T1 cells dispersed in 100 μL of PBS (pH 7.4) were subcutaneously inoculated into the left flanks of BALB/c mice. […] To assess tumor growth suppression, the tumor size and body weight of the mice in all groups were measured every 3 days after treatment. The tumor volume in each mouse was calculated as (width)^2 × length × 0.52. After 21 days of treatment, mice were sacrificed and tumor masses were measured.

4T1 cells [1] = assay: In vitro 4T1 cell invasion assay; assay type: cell-based, murine; conditions: 100 µg/mL ATV, 24 h
Experimental: (§1) The in vitro inhibition of 4T1 cell invasion and migration by ATV-NEs was assessed by Cultrex® 24-well basement membrane extract cell invasion assays (Trevigen, Inc., Gaithersburg, MD, USA). Briefly, the membrane insert in each well was uniformly coated with 100 µL of 0.5× basement membrane extract and incubated for 24 h at 37 °C. Separately, uncoated wells were used for cell migration assays. Next, each coated well was washed using 1× buffer. For invasion assays, the cells in Roswell Park Memorial Institute medium with 0.5% FBS were seeded into each apical chamber at a density of 1 × 10^6 cells/well. For cell migration assays, the same number of cells was seeded in the uncoated apical compartment. Subsequently, 500 µL of Roswell Park Memorial Institute medium containing 10% FBS were loaded into the basal compartment to serve as a chemoattractant; the cells were then cultured at 37 °C. After incubation for 24 h, both apical and basal compartments were washed with 1× buffer and the basal chamber was filled with 500 µL of cell dissociation solution (calcein-AM); the cells were incubated for 1 h at 37 °C. Finally, the dissolved calcein-AM concentration was measured with a fluorescence reader at an excitation wavelength of 485 nm and emission wavelength of 520 nm.

4T1 cells [2] = assay: In vitro 4T1 cell migration assay; assay type: cell-based, murine; conditions: Mus musculus, 4T1, 24 h; read-out: Inhibition of 4T1 cell migration compared with untreated controls
Experimental: as §1

4T1 cells [3] = assay: In vitro 4T1 cell adhesion to ECM components; assay type: cell-based, murine; conditions: 100 µg/mL ATV, 1.5 h; fibronectin, collagen I, collagen IV, laminin I, fibrinogen
Experimental: After incubation for 1.5 h at 37 °C, the cells were washed with PBS (pH 7.4) and stained by incubation for 10 min with the dye included in the kit. Then, each well was gently washed five times with 500 µL of sterilized water; 200 µL of extraction solution were added to each well, and the cells were incubated for 10 min in an orbital shaker. Finally, change in color was measured with a plate reader at 560 nm; inhibition of adhesion in the drug-treated cells was evaluated relative to inhibition in the untreated cells (control).

[4] = system: MCF-7 (human breast adenocarcinoma) cells; assay type: cell-based; conditions: 24 h
Experimental: (§2) After incubation for 1 h, the absorbance at 450 nm was measured and the percentage of viable cells was calculated by comparison with the absorbance of untreated cells (100% viability).

[5] = system: 4T1 (murine stage IV breast cancer) cells; assay type: cell-based; conditions: mouse, 24 h
Experimental: as §2

## CC(C)c1c(C(=O)Nc2ccccc2)c(-c2ccccc2)c(-c2ccc(F)cc2)n1CC[C@@H](O)C[C@@H](O)CC(=O)O [ATV in 10% DMF, Atorvastatin]
4T1 cell tumor; daily oral, 40 mg/kg ATV in 10% DMF, 21 days
  Tumor growth compared to untreated controls (in words): did not inhibit tumor growth

## CC(C)c1c(C(=O)Nc2ccccc2)c(-c2ccccc2)c(-c2ccc(F)cc2)n1CC[C@@H](O)C[C@@H](O)CC(=O)O [ATV-IP, Atorvastatin]
4T1 cell tumor; once-daily IP, 5 mg/kg ATV in 10% DMF, 21 days
  Tumor growth inhibition compared to controls: 30.4%
4T1 cell tumor; once-daily IP, 10 mg/kg ATV in 10% DMF, 21 days
  Tumor growth inhibition compared to controls: 52.5%
4T1 cell tumor; once-daily IP, 10 mg/kg ATV in 10% DMF, day 21
  Isolated tumor mass reduction compared to controls: 73.8%

## CC(C)c1c(C(=O)Nc2ccccc2)c(-c2ccccc2)c(-c2ccc(F)cc2)n1CC[C@@H](O)C[C@@H](O)CC(=O)O [ATV in 0.5% DMSO, Atorvastatin]
4T1 cells [1]
  Decrease in 4T1 cell invasion compared with untreated controls: 31.9%
4T1 cells [2]
  inhibition at 100 µg/mL: 20.3%
4T1 cells [3]
  4T1 cell adhesion to ECM components (in words): significantly decreased adhesion
[4]
  Concentration at which cytotoxic effects were exhibited: > 100 µg/mL ATV
[5]
  Concentration at which cytotoxic effects were exhibited: > 100 µg/mL ATV
